These results are taken from US20140294991A1, “MEDICAMENT FOR TREATING ANTERIOR EYE DISEASE COMPRISING REBAMIPIDE AND A TEAR-RETAINING AGENT” (OTSUKA PHARMACEUTICAL CO., LTD., priority 2011, published 2014).

SMILES strings stand for the structures.

In this test the test system is tear deficient rat model. As to the kind of experiment: Tear volume by Schirmer's test in capsaicin-induced tear deficient rat model. Type of test: in vivo, Wister/ST rat. The settings on record: Pharmacological Experiment 3; repeated administration test; compared with non-treated group (FIG. 5). As for the experimental part:
To evaluate the utility of a combination of rebamipide and a tear-retaining agent or an artificial tear, rebamipide and sodium hyaluronate were administrated in combination to a tear deficient rat model, and the tear volume was measured and the corneal epithelial damage was evaluated. The tests were carried out in single administration and repeated administration.
Capsaicin (50 mg/kg) was administered to a 4-day-old Wister/ST rat, and 4 weeks later the rat was used as a tear deficient rat model.
For the single administration test, 5 μl of each drug solution for one eye was topically administrated to the rats of the “2% rebamipide-treated” group, “0.1% sodium hyaluronate-treated” group, and “2% rebamipide+0.1% sodium hyaluronate-treated” group. For the combination administration, 0.1% sodium hyaluronate was administrated 5 minutes after the administration of 2% rebamipide.
For the repeated administration test, 5 μl of each drug solution for one eye was topically administrated to the rats of the “2% rebamipide-treated” group (4 times/day), “0.1% sodium hyaluronate-treated” group (6 times/day), and “2% rebamipide (4 times/day)+0.1% sodium hyaluronate (6 times/day)-treated” group. […]
The tear volumes were measured as an index of a tear-retention capacity by Schirmer's test.

Consider `O=C(NC(Cc1cc(=O)[nH]c2ccccc12)C(=O)O)c1ccc(Cl)cc1` (stereo not shown) [rebamipide, 2-(4-chlorobenzoylamino)-3-[2(1H)-quinolin-4-yl]propionic acid], for which the “tear volume (tear-retention capacity)” value is on record as “significantly higher”.
